Assay results from ChEMBL document CHEMBL2034968, “Discovery of novel urea-based hepatitis C protease inhibitors with high potency against protease-inhibitor-resistant mutants” (J Med Chem, 2012).

Tests used:
[1] = Terminal half life in rat at 5 mg/kg, po; format: ADME, organism-based; set-up: dose 5 mg/kg, route oral; details: in vivo, read-out: beta t1/2 (converted)
Hepatitis C virus [2] = test: Antiviral activity against Hepatitis C virus subtype 1b harboring protease R155K mutant by transient replicon assay; format: functional, organism-based, Hepacivirus hominis; details: genotype 1b
[3] = (§1) Oral bioavailability in rat at 5 mg/kg; format: ADME, organism-based; details: in vivo
[4] = (§2) AUC in rat at 5 mg/kg, po; format: ADME, organism-based, Plasma; set-up: dose 5 mg/kg, route oral; details: plasma
[5] = Maximum drug absorption in rat at 5 mg/kg, po; format: ADME, organism-based; set-up: dose 5 mg/kg, route oral; details: in vivo, read-out: Drug absorption
Hepatitis C virus [6] = test: Antiviral activity against wild type Hepatitis C virus subtype 1b by transient replicon assay; format: functional, organism-based, Hepacivirus hominis; details: genotype 1b
Hepatitis C virus [7] = test: Resistance index, ratio of EC50 for Hepatitis C virus subtype 1b harboring protease D168V mutant to EC50 for wild type Hepatitis C virus subtype 1b; format: functional, Hepacivirus hominis, genotype 1b
Hepatitis C virus [8] = test: Antiviral activity against Hepatitis C virus subtype 1b harboring protease A156V mutant by transient replicon assay; format: functional, organism-based, Hepacivirus hominis; details: genotype 1b
[9] = Inhibition of HCV 1a protease 1a domain; set-up: species or system Hepacivirus hominis
Hepatitis C virus [10] = test: Antiviral activity against Hepatitis C virus subtype 1b harboring protease D168A mutant by transient replicon assay; format: functional, organism-based, Hepacivirus hominis; details: genotype 1b
[11] = (§3) AUC in rat at 1 mg/kg, iv; format: ADME, organism-based, Plasma; set-up: dose 1 mg/kg, route intravenous; details: plasma
Hepatitis C virus [12] = test: Antiviral activity against Hepatitis C virus subtype 1a by stable replicon assay; format: functional, organism-based, Hepacivirus hominis
Hepatitis C virus [13] = test: Resistance index, ratio of EC50 for Hepatitis C virus subtype 1b harboring protease D168A mutant to EC50 for wild type Hepatitis C virus subtype 1b; format: functional, Hepacivirus hominis, genotype 1b
Hepatitis C virus [14] = test: Antiviral activity against Hepatitis C virus subtype 1b by stable replicon assay; format: functional, organism-based, Hepacivirus hominis; details: genotype 1b
Hepatitis C virus [15] = test: Antiviral activity against Hepatitis C virus subtype 1b harboring protease D168V mutant by transient replicon assay; format: functional, organism-based, Hepacivirus hominis; details: genotype 1b
Hepatitis C virus [16] = test: Resistance index, ratio of EC50 for Hepatitis C virus subtype 1b harboring protease R155K mutant to EC50 for wild type Hepatitis C virus subtype 1b; format: functional, Hepacivirus hominis, genotype 1b
Hepatitis C virus [17] = test: Antiviral activity against Hepatitis C virus subtype 1b harboring protease A156S mutant by transient replicon assay; format: functional, organism-based, Hepacivirus hominis; details: genotype 1b
Hepatitis C virus [18] = test: Antiviral activity against Hepatitis C virus subtype 1b harboring protease A156T mutant by transient replicon assay; format: functional, organism-based, Hepacivirus hominis; details: genotype 1b
Rattus norvegicus [19] = test: Hepatic clearance in rat at 1 mg/kg, iv; format: ADME, organism-based, Liver; set-up: dose 1 mg/kg, route intravenous; details: in vivo
Rattus norvegicus [20] = test: Dose normalized AUC in rat at 5 mg/kg, po; format: ADME, organism-based; set-up: dose 5 mg/kg, route oral; details: in vivo
Rattus norvegicus [21] = test: as §1; format: ADME, organism-based; details: in vivo
Rattus norvegicus [22] = test: as §2; format: ADME, organism-based, Plasma; set-up: dose 5 mg/kg, route oral; details: in vivo
[23] = AUC in rat liver at 5 mg/kg, po; format: ADME, organism-based; set-up: dose 5 mg/kg, route oral
Hepatitis C virus [24] = test: Ratio of EC50 for danoprevir to EC50 for compound against Hepatitis C virus subtype 1b harboring protease D168A mutant by transient replicon assay; format: functional, Hepacivirus hominis, genotype 1b
Hepatitis C virus [25] = test: Ratio of EC50 for danoprevir to EC50 for compound against Hepatitis C virus subtype 1b harboring protease A156T mutant by transient replicon assay; format: functional, Hepacivirus hominis, genotype 1b
Hepatitis C virus [26] = test: Ratio of EC50 for danoprevir to EC50 for compound against Hepatitis C virus subtype 1b harboring protease A156V mutant by transient replicon assay; format: functional, Hepacivirus hominis, genotype 1b
Hepatitis C virus [27] = test: Ratio of EC50 for TMC-435350 to EC50 for compound against Hepatitis C virus subtype 1b harboring protease A156V mutant by transient replicon assay; format: functional, Hepacivirus hominis, genotype 1b
Liver = test: Ratio of drug level in liver to plasma in rat at 5 mg/kg, po; format: ADME, organism-based; set-up: dose 5 mg/kg, route oral; details: other tissue
Hepatitis C virus [28] = test: Ratio of EC50 for TMC-435350 to EC50 for compound against wild type Hepatitis C virus subtype 1b by transient replicon assay; format: functional, Hepacivirus hominis, genotype 1b
[29] = Terminal half life in rat liver at 5 mg/kg, po; format: ADME, organism-based; set-up: dose 5 mg/kg, route oral; details: read-out: beta t1/2 (converted)
Hepatitis C virus [30] = test: Ratio of EC50 for danoprevir to EC50 for compound against Hepatitis C virus subtype 1b harboring protease D168V mutant by transient replicon assay; format: functional, Hepacivirus hominis, genotype 1b
Hepatitis C virus [31] = test: Ratio of EC50 for TMC-435350 to EC50 for compound against Hepatitis C virus subtype 1b harboring protease A156S mutant by transient replicon assay; format: functional, Hepacivirus hominis, genotype 1b
Hepatitis C virus [32] = test: Ratio of EC50 for TMC-435350 to EC50 for compound against Hepatitis C virus subtype 1b harboring protease D168V mutant by transient replicon assay; format: functional, Hepacivirus hominis, genotype 1b
Rattus norvegicus [33] = test: as §3; format: ADME, organism-based, Plasma; set-up: dose 1 mg/kg, route intravenous; details: in vivo
Hepatitis C virus [34] = test: Ratio of EC50 for TMC-435350 to EC50 for compound against Hepatitis C virus subtype 1b harboring protease D168A mutant by transient replicon assay; format: functional, Hepacivirus hominis, genotype 1b
Hepatitis C virus [35] = test: Ratio of EC50 for danoprevir to EC50 for compound against Hepatitis C virus subtype 1b harboring protease R155K mutant by transient replicon assay; format: functional, Hepacivirus hominis, genotype 1b
Hepatitis C virus [36] = test: Ratio of EC50 for TMC-435350 to EC50 for compound against Hepatitis C virus subtype 1b harboring protease A156T mutant by transient replicon assay; format: functional, Hepacivirus hominis, genotype 1b
Hepatitis C virus [37] = test: Ratio of EC50 for TMC-435350 to EC50 for compound against Hepatitis C virus subtype 1b harboring protease R155K mutant by transient replicon assay; format: functional, Hepacivirus hominis, genotype 1b
Hepatitis C virus [38] = test: Ratio of EC50 for danoprevir to EC50 for compound against wild type Hepatitis C virus subtype 1b by transient replicon assay; format: functional, Hepacivirus hominis, genotype 1b
Hepatitis C virus [39] = test: Ratio of EC50 for danoprevir to EC50 for compound against Hepatitis C virus subtype 1b harboring protease A156S mutant by transient replicon assay; format: functional, Hepacivirus hominis, genotype 1b

| Compound | half-life [1] [min] | EC50 (Hepatitis C virus [2]) [nM] | bioavailability [3] [%] | AUC [4] [ng·h/mL] | Fa [5] [%] | EC50 (Hepatitis C virus [6]) [nM] | Ratio EC50 (Hepatitis C virus [7]) | EC50 (Hepatitis C virus [8]) [nM] | IC50 [9] [nM] | EC50 (Hepatitis C virus [10]) [nM] | AUC [11] [ng·h/mL] | EC50 (Hepatitis C virus [12]) [nM] | Ratio EC50 (Hepatitis C virus [13]) | EC50 (Hepatitis C virus [14]) [nM] | EC50 (Hepatitis C virus [15]) [nM] | Ratio EC50 (Hepatitis C virus [16]) | EC50 (Hepatitis C virus [17]) [nM] | EC50 (Hepatitis C virus [18]) [nM] | CLH (Rattus norvegicus [19]) [mL/min/kg] | AUC/dose (Rattus norvegicus [20]) [kg·µg·h/mL/mg] | also measured |
| --- | --- | --- | --- | --- | --- | --- | --- | --- | --- | --- | --- | --- | --- | --- | --- | --- | --- | --- | --- | --- | --- |
| COc1ccc2c(O[C@@H]3C[C@H]4C(=O)N[C@]5(C(=O)NS(=O)(=O)C6CC6)C[C@H]5/C=C\CCCCC[C@H](NC(=O)N5CCC5)C(=O)N4C3)cc(-c3nc(C(C)C)cs3)nc2c1C | 136 | 20 | 4.2 | 40.5 | 7.6 | 0.1 | <1000 | 8 | 4 | 60 | 107 | 0.8 | <1000 | 0.4 | 97 | <1000 | 0.2 | 2 | 160.3 | 0.008 | – |
| COc1ccc2c(O[C@@H]3C[C@H]4C(=O)N[C@]5(C(=O)NS(=O)(=O)C6CC6)C[C@H]5/C=C\CCCCC[C@H](NC(=O)N5CC(F)(F)C5)C(=O)N4C3)cc(-c3nc(C(C)C)cs3)nc2c1C | 48.4 | 14 | 4 | 69 | 6.8 | 0.1 | <1000 | 6 | 2 | 15 | 203 | 0.8 | <1000 | 0.5 | 58 | <1000 | – | 1 | 91.03 | 0.014 | – |
| CC(C)(C)OC(=O)N[C@H]1CCCCC/C=C\[C@@H]2C[C@@]2(C(=O)NS(=O)(=O)C2CC2)NC(=O)[C@@H]2C[C@@H](OC(=O)N3Cc4cccc(F)c4C3)CN2C1=O [DANOPREVIR] | – | 82 | – | – | – | 0.2 | 10 | 8 | 0.7 | 39 | – | 2 | 10 | 1.5 | 26 | 10 | 2 | 10 | – | – | – |
| COc1ccc2c(O[C@@H]3C[C@H]4C(=O)N[C@]5(C(=O)NS(=O)(=O)C6CC6)C[C@H]5/C=C\CCCCC[C@H](NC(=O)N5CCCCC5)C(=O)N4C3)cc(-c3nc(C(C)C)cs3)nc2c1C | 69.6 | 6 | – | – | 20 | 0.04 | – | 7 | 5 | 32 | – | 0.4 | – | 0.5 | 79 | – | 0.1 | 2 | 83.4 | 0.053 | F (Rattus norvegicus [21]): 9.4%; AUC (Rattus norvegicus [22]): 0.266 µg·h/mL; AUC [23]: 308 µg·h/mL; Ratio EC50 (Hepatitis C virus [24]): 1; Ratio EC50 (Hepatitis C virus [25]): 5; Ratio EC50 (Hepatitis C virus [26]): 1; Ratio EC50 (Hepatitis C virus [27]): 49; Ratio (Liver): 1158; Ratio EC50 (Hepatitis C virus [28]): 23; half-life [29]: 486 min; Ratio EC50 (Hepatitis C virus [30]): 0.3; Ratio EC50 (Hepatitis C virus [31]): 3.5; Ratio EC50 (Hepatitis C virus [32]): 2; AUC (Rattus norvegicus [33]): 0.268 µg·h/mL; Ratio EC50 (Hepatitis C virus [34]): 5; Ratio EC50 (Hepatitis C virus [35]): 14; Ratio EC50 (Hepatitis C virus [36]): 43; Ratio EC50 (Hepatitis C virus [37]): 9; Ratio EC50 (Hepatitis C virus [38]): 5; Ratio EC50 (Hepatitis C virus [39]): 21 |
